Assay results taken from ChEMBL document CHEMBL1201862, “PubChem BioAssay data set” (2004).
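Where inhibition never reached the appropriate level, the endpoint shown equals the highest concentration tested. Otherwise, values were interpolated linearly from a five-concentration, 48-hour dose response in 96-well plates. GI50 = concentration required for 50% inhibition of growth.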 Active and inactive are the calls of the source. Cut-off read from the data, not from the text of the source: active = GI50 up to about 1.1 µM and inactive = higher.

Tests used:
Assay in all cases: NCI-60 cell line screen, 48 h
MDA-MB-435 = system: MDA-MB-435
T47D = system: T47D
BT-549 = system: BT-549
MDA-N = system: MDA-N
Hs-578T = system: Hs-578T
MDA-MB-231 = system: MDA-MB-231
786-0 = system: 786-0
LXFL 529 = system: LXFL 529

Measured: GI50

Cc1cc(C)c2c(c1)CC1(Cc3c(C)ccc(C)c3C1=O)C2=O (stereo unspecified)
inactive: MDA-MB-435 > 100 µM | T47D > 100 µM | BT-549 > 100 µM | MDA-N > 100 µM | Hs-578T > 100 µM | MDA-MB-231 > 100 µM

CNC(=S)N/N=C(/C)CCC/C(C)=N/NC(=S)NC
inactive: MDA-MB-435 > 71.8 µM | T47D 1.23 µM | BT-549 > 100 µM | MDA-N > 100 µM | Hs-578T > 100 µM | MDA-MB-231 > 28.6 µM

CC(C)(CO)NC(=O)c1cccc(C(=O)NC(C)(C)CO)c1Br
inactive: MDA-MB-435 > 100 µM | 786-0 > 100 µM | T47D > 100 µM | BT-549 > 100 µM | MDA-MB-231 > 100 µM

CC1(C)O[C@H]2OC(CO)C(OS(C)(=O)=O)[C@H]2O1 (stereo partly specified)
inactive: MDA-MB-435 > 100 µM | 786-0 > 100 µM | T47D > 100 µM | MDA-N > 100 µM | Hs-578T > 100 µM | MDA-MB-231 > 100 µM

CN(C)CCCNC(=O)c1c(-c2cccnc2)cnc2ccccc12
inactive: 786-0 > 100 µM | BT-549 > 100 µM | MDA-N > 100 µM

NCCCn1c(Cl)nc2ccccc21
inactive: MDA-MB-435 > 100 µM | 786-0 > 100 µM | T47D > 100 µM | BT-549 > 100 µM | MDA-N > 100 µM | Hs-578T > 100 µM | MDA-MB-231 > 100 µM

N#CCCN(CCC#N)c1ccc(/C=C2\N=C(c3cc([N+](=O)[O-])ccc3Cl)N(S(=O)(=O)c3ccccc3)C2=O)cc1
inactive: LXFL 529 > 100 µM

CSC(=S)N(C)c1nc(N(C)C)s[s+]1
inactive: 786-0 > 100 µM | LXFL 529 > 100 µM
